Results as given in patent publication US20050004111A1, “Selective MMP-13 inhibitors” (AVENTIS PHARMA DEUTSCHLAND GMBH, priority 2003, published 2005).
pIC50: −log10 of the molar value.

These compounds were tested against T1, catalytic domain of human collagenase 3 (MMP-13) (Homo sapiens, UniProt P45452) (assay: Enzyme activity of the catalytic domain of human collagenase 3 (MMP-13), fluorogenic substrate). Conditions: determined graphically from % inhibition, read-out: IC50 MMP13.
T1 construct: Determining the enzyme activity of the catalytic domain of human collagenase 3 (MMP-13); purchased INVITEK, Berlin 30 100 803
Type: biochemical
Description: Determining the enzyme activity of the catalytic domain of human collagenase 3 (MMP-13).
Activating the proenzyme:
2 parts by volume of proenzyme are incubated with 1 part by volume of APMA solution at 37° C. for 1.5 hours. The APMA solution is prepared from a 10 mmol/l solution of p-aminophenylmercuric acetate in […] by diluting with 3 parts by volume of tris/HCl buffer, pH 7.5 (see below). The pH is adjusted to between 7.0 and 7.5 by adding 1 mmol/I HCl. After the enzyme has been activated, it is diluted to a concentration of 1.67 μg/ml using the tris/HCl buffer.
In order to measure the enzyme activity, 10 μl of enzyme solution are incubated for 15 minutes with 10 μl of a 3% (v/v) buffered solution of dimethyl sulfoxide (reaction 1). In order to measure the enzyme inhibitor activity, 10 μl of enzyme solution are incubated with 10 μl of a 3% (v/v) buffered solution of dimethyl sulfoxide containing the enzyme inhibitor (reaction 2).
In the case of both reaction 1 and reaction 2, the enzyme reaction is monitored by fluorescence spectroscopy (328 nm (extinction)/393 nm (emission)) after adding 10 μl of a 3% (v/v) aqueous solution of dimethyl sulfoxide containing 0.75 mmol of the substrate/l.
The enzyme activity is depicted as increase in extinction/minute.
The effect of the inhibitor is calculated as a percentage inhibition using the following formula: % inhibition=100−[(increase in extinction/minute in reaction 2)/(increase in extinction/minute in reaction 1)×100].
The IC50, i.e., the inhibitor concentration that is required for inhibiting the enzyme activity by 50%, is determined graphically by plotting the percentage inhibitions at different inhibitor concentrations.
The buffer solution contains 0.05% Brij (Sigma, Deisenhofen, Germany) and 0.1 mol of tris/HCl/l, 0.1 mol of NaCl/l and 0.01 mol of CaCl2/l (pH=7.5). The enzyme solution contains 1.67 μg of the enzyme domain/ml. The substrate solution contains 0.75 mmol/l of the fluorogenic substrate (7-methoxycoumarin4-yl)acetyl-Pro-Leu-Gly-Leu-3-(2′,4′-dinitrophenyl)-L-2,3-diaminopropionyl-Ala-Arg-NH2 (Bachem, Heidelberg, Germany).

| SMILES | pIC50 |
| --- | --- |
| Cc1cc(CNC(=O)c2cc(C(=O)NCc3ccc(OCC(=O)O)cc3)ncn2)ccc1F [Example 2, [4-({[6-(4-Fluoro-3-methylbenzylcarbamoyl)pyrimidine-4-carbonyl]-amino}methyl)phenoxy]acetic acid] | 8.15 |
| COc1cccc(CNC(=O)c2cc(C(=O)NCc3ccc(C)s3)ncn2)c1 [Example 4] | 7.62 |
| COc1cc(CNC(=O)c2cc(C(=O)NCc3ccc(F)c(Br)c3)ncn2)ccn1 [Example 11] | 7.52 |
| O=C(NCCc1cccs1)c1cc(C(=O)NCc2ccc(F)c(Cl)c2)ncn1 [Example 28] | 7.00 |

Results, then the compound that gave them:

| pIC50 | SMILES |
| --- | --- |
| 7.92 | Cc1cc(CNC(=O)c2cc(C(=O)NCc3ccc(OCC(=O)OC(C)(C)C)cc3)ncn2)ccc1F [Example 1, tert-Butyl [4-({[6-(4-fluoro-3-methylbenzylcarbamoyl)pyrimidine-4-carbonyl]amino}methyl)phenoxy]acetate] |
| 7.30 | COc1cc(CNC(=O)c2cc(C(=O)NCc3ccc(F)c(Cl)c3)ncn2)ccn1 [Example 20] |
| 6.70 | Cc1cc(CNC(=O)c2cc(C(=O)NCc3sccc3C)ncn2)ccc1F [Example 35] |
| 6.30 | COc1cccc(CNC(=O)c2cc(C(=O)NCc3nccs3)ncn2)c1 [Example 44] |

The compounds below were run against T2, prolyl 4-hydroxylase (Gallus gallus, UniProt P16924) (assay: Prolyl hydroxylase inhibition (method of Majamaa, version of Kaule and Guenzler)). Conditions: enzyme from 14-day-old chick embryos; concentrations of from 0.1 μM to 1 mM.
T2 construct: from tissue; host or cells: 14-day-old chick embryos (homogenate)
T2 sequence (P16924 1-516): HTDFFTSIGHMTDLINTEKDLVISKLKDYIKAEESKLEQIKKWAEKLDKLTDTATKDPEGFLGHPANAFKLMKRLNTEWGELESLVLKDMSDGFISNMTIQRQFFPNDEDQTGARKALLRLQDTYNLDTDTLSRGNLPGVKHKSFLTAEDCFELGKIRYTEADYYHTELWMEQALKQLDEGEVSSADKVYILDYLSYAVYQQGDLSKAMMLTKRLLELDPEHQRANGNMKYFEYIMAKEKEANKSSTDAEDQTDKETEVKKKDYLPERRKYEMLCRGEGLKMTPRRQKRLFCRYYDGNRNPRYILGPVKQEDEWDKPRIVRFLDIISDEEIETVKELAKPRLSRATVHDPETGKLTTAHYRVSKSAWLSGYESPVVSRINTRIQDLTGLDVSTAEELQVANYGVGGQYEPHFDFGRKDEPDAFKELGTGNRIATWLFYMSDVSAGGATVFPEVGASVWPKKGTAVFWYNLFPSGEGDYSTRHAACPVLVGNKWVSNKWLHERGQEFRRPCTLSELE
T2 sequence (P09102 23-515 partner): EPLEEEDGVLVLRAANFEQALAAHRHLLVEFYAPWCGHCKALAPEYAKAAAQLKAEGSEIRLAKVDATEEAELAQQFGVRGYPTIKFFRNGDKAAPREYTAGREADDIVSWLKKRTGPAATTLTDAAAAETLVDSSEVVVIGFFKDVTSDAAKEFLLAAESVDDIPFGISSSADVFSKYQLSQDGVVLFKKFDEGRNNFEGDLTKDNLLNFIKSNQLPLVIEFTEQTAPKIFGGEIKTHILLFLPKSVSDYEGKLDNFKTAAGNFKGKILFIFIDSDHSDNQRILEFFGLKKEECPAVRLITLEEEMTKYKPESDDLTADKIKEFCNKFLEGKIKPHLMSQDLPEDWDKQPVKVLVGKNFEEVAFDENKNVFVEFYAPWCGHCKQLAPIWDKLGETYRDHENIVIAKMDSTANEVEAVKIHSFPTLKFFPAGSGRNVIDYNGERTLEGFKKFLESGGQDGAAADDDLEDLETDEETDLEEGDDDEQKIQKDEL
Type: biochemical
Description: Determining prolyl hydroxylase inhibition by the method of Majamaa Eur. J. Biochem. 138 (1984) 239-245 using the version of Kaule and guenzler Analytical Biochemistry 184 (1990) 291-297.
0.03 μg of prolyl 4-hydroxylase, which was prepared, by the method of Kedersa, Collagen Relat. Res. 1 (1981) 345-353, from homogenized 14-day-old chick embryos by ammonium sulfate precipitation and affinity chromatography on poly-L-proline-coupled Sepharose 4B and subsequent DEAE cellulose chromatography, was incubated, at 37° C. for one hour, in 0.05 ml of an 0.04 M tris-HCl solution (pH=7.5) containing 0.05 mM FeSO4, 0.1 mM 2-oxo-[5-C-14]glutarate (100,000 dpm), 20 μg (0.4 mg/ml) of (Pro-Pro-Gly)10 (Protein Research Foundation, Minoh, Osaka, Japan), 1 mM ascorbic acid, 0.4 mg of catalase/ml, 0.5 mM dithiothreitol and 2 mg of bovine serum albumin/ml, as well as the concentration of the inhibitor to be measured (the comparison experiment was carried out without any inhibitor). After that, 25 μl of a 20 mM succinate and 2-oxaglutarate solution, and also 25 μl of a 0.16 M 2,4-DNPH solution containing 30% HClO4, were added. After the mixture had been incubated at room temperature for a further 30 minutes, it was centrifuged at 3000 g for 5 minutes. The radioactivity of 100 μl of the supernatant was determined by liquid scintillation. Production of the [1-C-14] succinate was given in dpm. Unless otherwise indicated, all the chemicals and reagents were obtained from Sigma, Sigma D-82024 Taufkirchen.
The compounds tested in Table 3 were used at concentrations of from 0.1 μM to 1 mM. Where it was possible, the IC50 value was determined by graphic extrapolarization of the individual results. This value denotes the concentration of active inhibitors that led to 50% inhibition of the enzyme.

| SMILES | Prolyl hydroxylase IC50 | pIC50 |
| --- | --- | --- |
| COc1cccc(CNC(=O)c2cc(C(=O)NCc3ccncc3)ncn2)c1 [Example 22] | No inhibition | – |
| COc1cccc(CNC(=O)c2cc(C(=O)NCc3ccc(OCCN(C)C)cc3)ncn2)c1 [Example 70] | No inhibition | – |
| COc1cccc(CNC(=O)c2cc(C(=O)NCc3ccc(OCCCN(C)C)cc3)ncn2)c1 [Example 71] | No inhibition | – |
| O=C(NCc1ccc(OCCN2CCOCC2)cc1)c1cc(C(=O)NCc2ccc(F)c(Cl)c2)ncn1 [Example 72] | No inhibition | – |

The next lines start with the values.

| Prolyl hydroxylase IC50 | pIC50 | SMILES |
| --- | --- | --- |
| No inhibition | – | Cc1cc(CNC(=O)c2cc(C(=O)NCc3cccs3)ncn2)ccc1F [Example 7] |
| No inhibition | – | O=C(NCc1ccncc1)c1cc(C(=O)NCc2ccc(F)c(Cl)c2)ncn1 [Example 14] |
| No inhibition | – | COc1cccc(CNC(=O)c2cc(C(=O)NCc3cccc(OCCN(C)C)c3)ncn2)c1 [Example 69] |
| No inhibition | – | O=C(NCc1ccc(F)c(Cl)c1)c1cc(C(=O)NCc2cccs2)ncn1 [Example 83] |
| No inhibition | – | Cc1ccc(CNC(=O)c2cc(C(=O)NCc3ccc(F)c(C)c3)ncn2)o1 [Example 84] |
| – | 5.92 | O=C(O)c1cc(C(=O)O)ncn1 [Pyrimidine-4,6-dicarboxylic acid, reference compound] |
